Results: US20030199671A1, “Binding molecules for Fc-region polypeptides” (priority 2001, published 2003)
Read-outs that look alike come from different tables or passages of the source. Positions of bridges follow the written chain, without caps; N, C: chain ends. Residues, ends and D or L forms follow the SMILES beside them.

Legend:
Test in all cases: Fluorescence anisotropy binding, Oregon Green labeled peptide
human plasma IgG1 = target: T1, human plasma IgG1 (Homo sapiens, UniProt P01857)
T1 construct: the individual human plasma IgG isoforms: IgG1, IgG2, IgG3, or IgG4; purchased Calbiochem; host or cells: human plasma
Experimental: (§1) Peptides were synthesized by BACHEM and then Oregon Green labeled and HPLC purified. Binding studies were performed using human plasma IgG isoforms: IgG1, IgG2, IgG3, and IgG4, obtained from Calbiochem.
(§2) Binding studies were carried out at either pH 4.0, 7.5, or 9.5, with or without salt in the following buffers:
(§3) 2) 10 mM Sodium Citrate, 500 mM Sodium Chloride, 0.01% Tween 20, pH 4.0;
(§4) 4) […], 500 mM Sodium Chloride, 0.01% Tween 20, pH 7.5;
(§5) 5) 10 mM Sodium Bicarbonate, 0.01% Tween 20, pH 9.5;
(§6) 6) 10 mM Sodium Bicarbonate, 500 mM Sodium Chloride, 0.01% Tween 20, pH 9.5; or […]

human plasma IgG4 = target: T2, human plasma IgG4 (Homo sapiens, UniProt P01861)
T2 construct: the individual human plasma IgG isoforms: IgG1, IgG2, IgG3, or IgG4; purchased Calbiochem; host or cells: human plasma
Experimental: as §1, §2, §3, §4, §5, §6

human plasma IgG3 = target: T3, human plasma IgG3 (Homo sapiens, UniProt P01860)
T3 construct: the individual human plasma IgG isoforms: IgG1, IgG2, IgG3, or IgG4; purchased Calbiochem; host or cells: human plasma
Experimental: as §1, §2, §3, §4, §5, §6

human plasma IgG2 = target: T4, human plasma IgG2 (Homo sapiens, UniProt P01859)
T4 construct: the individual human plasma IgG isoforms: IgG1, IgG2, IgG3, or IgG4; purchased Calbiochem; host or cells: human plasma
Experimental: as §1, §2, §3, §4, §5, §6

T1 sequence (P01857 1-330 isoform P01857-1): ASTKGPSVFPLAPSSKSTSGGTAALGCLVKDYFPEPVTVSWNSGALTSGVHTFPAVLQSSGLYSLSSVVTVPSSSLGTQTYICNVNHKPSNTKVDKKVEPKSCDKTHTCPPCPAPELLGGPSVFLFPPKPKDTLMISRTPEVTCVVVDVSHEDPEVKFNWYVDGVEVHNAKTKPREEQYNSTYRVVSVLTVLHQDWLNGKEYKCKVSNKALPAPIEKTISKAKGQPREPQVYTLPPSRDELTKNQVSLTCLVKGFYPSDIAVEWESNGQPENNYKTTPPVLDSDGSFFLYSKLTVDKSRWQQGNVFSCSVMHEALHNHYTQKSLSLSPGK
T3 sequence (P01860 1-377 isoform P01860-1): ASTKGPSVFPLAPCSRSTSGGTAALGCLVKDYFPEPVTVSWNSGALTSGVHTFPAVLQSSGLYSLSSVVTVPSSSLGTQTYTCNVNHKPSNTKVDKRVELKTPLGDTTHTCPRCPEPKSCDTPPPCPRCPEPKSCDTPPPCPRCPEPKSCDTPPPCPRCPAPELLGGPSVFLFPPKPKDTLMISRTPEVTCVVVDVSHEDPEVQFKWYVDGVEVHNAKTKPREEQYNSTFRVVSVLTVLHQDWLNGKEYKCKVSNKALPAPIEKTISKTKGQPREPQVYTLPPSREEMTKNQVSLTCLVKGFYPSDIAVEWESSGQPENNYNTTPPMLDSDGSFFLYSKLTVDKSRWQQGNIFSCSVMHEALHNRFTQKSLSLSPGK
T2 sequence (P01861 1-327 isoform P01861-1): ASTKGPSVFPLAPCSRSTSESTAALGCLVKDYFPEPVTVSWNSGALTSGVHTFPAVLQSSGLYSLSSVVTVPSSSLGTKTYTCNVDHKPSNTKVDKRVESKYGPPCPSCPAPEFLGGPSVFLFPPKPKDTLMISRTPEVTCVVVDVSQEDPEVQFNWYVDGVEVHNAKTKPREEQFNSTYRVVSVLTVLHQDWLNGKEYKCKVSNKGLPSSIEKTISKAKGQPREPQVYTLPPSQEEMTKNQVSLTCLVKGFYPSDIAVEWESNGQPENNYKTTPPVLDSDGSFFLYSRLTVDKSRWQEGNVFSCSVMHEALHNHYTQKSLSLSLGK
T4 sequence (P01859 1-326 isoform P01859-1): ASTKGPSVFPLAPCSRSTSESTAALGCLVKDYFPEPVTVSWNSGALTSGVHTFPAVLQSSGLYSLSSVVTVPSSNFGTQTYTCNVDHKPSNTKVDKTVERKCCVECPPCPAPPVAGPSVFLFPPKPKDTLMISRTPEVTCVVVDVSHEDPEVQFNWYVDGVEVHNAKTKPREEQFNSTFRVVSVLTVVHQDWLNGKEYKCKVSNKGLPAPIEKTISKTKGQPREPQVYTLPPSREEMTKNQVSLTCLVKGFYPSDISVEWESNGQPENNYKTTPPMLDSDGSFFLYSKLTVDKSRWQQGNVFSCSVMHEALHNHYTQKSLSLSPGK

Kd (human plasma IgG1; 10 nM Tris-HCl, 500 mM Sodium Chloride, pH 7.5, read-out: KD (μM) IgG1 pH 7.5 + salt): > 10 µM
Kd (human plasma IgG1; 10 mM Sodium Bicarbonate, 500 mM Sodium Chloride, pH 9.5, read-out: KD (μM) IgG1 pH 9.5 + salt): > 10 µM
Kd (human plasma IgG1; 10 mM Sodium Bicarbonate, pH 9.5, read-out: KD (μM) IgG1 pH 9.5 − salt): > 10 µM
Kd (human plasma IgG1; 10 mM Sodium Citrate, 500 mM Sodium Chloride, pH 4.0, read-out: KD (μM) IgG1 pH 4.0 + salt): > 10 µM
Kd (human plasma IgG1; 10 mM Sodium Citrate, pH 4.0, read-out: KD (μM) IgG1 pH 4.0 − salt): > 10 µM
Kd (human plasma IgG1; 10 mM Tris-HCl, pH 7.5, read-out: KD (μM) IgG1 pH 7.5 − salt): > 10 µM
Kd (human plasma IgG4; 10 nM Tris-HCl, 500 mM Sodium Chloride, pH 7.5, read-out: KD (μM) IgG4 pH 7.5 + salt): > 10 µM
Kd (human plasma IgG4; 10 mM Sodium Bicarbonate, 500 mM Sodium Chloride, pH 9.5, read-out: KD (μM) IgG4 pH 9.5 + salt): > 10 µM
Kd (human plasma IgG4; 10 mM Sodium Bicarbonate, pH 9.5, read-out: KD (μM) IgG4 pH 9.5 − salt): > 10 µM
Kd (human plasma IgG4; 10 mM Sodium Citrate, 500 mM Sodium Chloride, pH 4.0, read-out: KD (μM) IgG4 pH 4.0 + salt): > 10 µM
Kd (human plasma IgG4; 10 mM Sodium Citrate, pH 4.0, read-out: KD (μM) IgG4 pH 4.0 − salt): > 10 µM
Kd (human plasma IgG4; 10 mM Tris-HCl, pH 7.5, read-out: KD (μM) IgG4 pH 7.5 − salt): > 10 µM
Kd (human plasma IgG3; 10 nM Tris-HCl, 500 mM Sodium Chloride, pH 7.5, read-out: KD (μM) IgG3 pH 7.5 + salt): > 10 µM
Kd (human plasma IgG3; 10 mM Sodium Bicarbonate, 500 mM Sodium Chloride, pH 9.5, read-out: KD (μM) IgG3 pH 9.5 + salt): > 10 µM
Kd (human plasma IgG3; 10 mM Sodium Bicarbonate, pH 9.5, read-out: KD (μM) IgG3 pH 9.5 − salt): > 10 µM
Kd (human plasma IgG3; 10 mM Sodium Citrate, 500 mM Sodium Chloride, pH 4.0, read-out: KD (μM) IgG3 pH 4.0 + salt): ~1 µM
Kd (human plasma IgG3; 10 mM Sodium Citrate, pH 4.0, read-out: KD (μM) IgG3 pH 4.0 − salt): ~1 µM
Kd (human plasma IgG3; 10 mM Tris-HCl, pH 7.5, read-out: KD (μM) IgG3 pH 7.5 − salt): > 10 µM
Kd (human plasma IgG2; 10 nM Tris-HCl, 500 mM Sodium Chloride, pH 7.5, read-out: KD (μM) IgG2 pH 7.5 + salt): > 10 µM
Kd (human plasma IgG2; 10 mM Sodium Bicarbonate, 500 mM Sodium Chloride, pH 9.5, read-out: KD (μM) IgG2 pH 9.5 + salt): > 10 µM
Kd (human plasma IgG2; 10 mM Sodium Bicarbonate, pH 9.5, read-out: KD (μM) IgG2 pH 9.5 − salt): > 10 µM
Kd (human plasma IgG2; 10 mM Sodium Citrate, 500 mM Sodium Chloride, pH 4.0, read-out: KD (μM) IgG2 pH 4.0 + salt): > 10 µM
Kd (human plasma IgG2; 10 mM Sodium Citrate, pH 4.0, read-out: KD (μM) IgG2 pH 4.0 − salt): > 10 µM
Kd (human plasma IgG2; 10 mM Tris-HCl, pH 7.5, read-out: KD (μM) IgG2 pH 7.5 − salt): > 10 µM
Compound: CC(=O)N[C@@H](C)C(=O)NCC(=O)N[C@@H](Cc1ccc(O)cc1)C(=O)N[C@@H](Cc1c[nH]c2ccccc12)C(=O)N[C@@H](Cc1ccc(O)cc1)C(=O)N[C@H]1CSSC[C@@H](C(=O)N2CCC[C@H]2C(=O)N[C@@H](CC(C)C)C(=O)N[C@@H](Cc2ccc(O)cc2)C(=O)N2CCC[C@H]2C(=O)NCC(=O)N2CCC[C@H]2C(=O)N[C@@H](CCC(=O)O)C(=O)NCC(=O)NCC(=O)NCC(=O)N[C@@H](CCCCN)C(N)=O)NC(=O)[C@H](CCC(=O)O)NC(=O)[C@@H]2CCCN2C(=O)[C@H](CCCNC(=N)N)NC(=O)[C@H](CC(=O)O)NC(=O)[C@@H]2CCCN2C(=O)[C@H](Cc2ccccc2)NC(=O)[C@H](Cc2c[nH]c3ccccc23)NC1=O [DX413] (Ac-AGYWYCWFPDRPECPLYPGPEGGGK-NH2; disulfide 6-14 (inferred))
